The OPERA property sets (Mansouri et al. 2018)
Values after ≈ are worked out from the molar mass of the structure shown.

conditions: 20 °C

Compound | solubility
Clc1ccc(-c2cc(Cl)c(Cl)c(Cl)c2Cl)c(Cl)c1 | 3.02 nM (≈ 1.09 ng/mL)
Clc1ccc(Cl)c(-c2c(Cl)ccc(Cl)c2Cl)c1 | 64.6 nM (≈ 21.1 ng/mL)
Clc1cc(Cl)c(-c2ccc(Cl)c(Cl)c2Cl)cc1Cl | 4.16 nM (≈ 1.5 ng/mL)

same assay, conditions: 25 °C

Compound | solubility
Clc1ccc(Cl)c(-c2c(Cl)c(Cl)c(Cl)c(Cl)c2Cl)c1Cl | 0.794 nM (≈ 0.341 ng/mL)
Clc1ccc(-c2c(Cl)cccc2Cl)c(Cl)c1 | 224 nM (≈ 65.4 ng/mL)
Clc1ccc(-c2cc(Cl)cc(Cl)c2Cl)cc1 | 170 nM (≈ 49.6 ng/mL)
Clc1ccccc1-c1c(Cl)c(Cl)cc(Cl)c1Cl | 39.8 nM (≈ 13 ng/mL)
Clc1ccc(-c2c(Cl)c(Cl)c(Cl)c(Cl)c2Cl)c(Cl)c1 | 1.07 nM (≈ 0.423 ng/mL)
Clc1ccc(-c2c(Cl)cccc2Cl)cc1Cl | 95.5 nM (≈ 27.9 ng/mL)
Clc1ccc(-c2cc(Cl)c(Cl)cc2Cl)c(Cl)c1 | 11.2 nM (≈ 3.66 ng/mL)
Clc1cc(Cl)c(-c2cc(Cl)c(Cl)c(Cl)c2)cc1Cl | 6.17 nM (≈ 2.23 ng/mL)
Clc1cc(-c2cc(Cl)c(Cl)c(Cl)c2Cl)cc(Cl)c1Cl | 1.9 nM (≈ 0.753 ng/mL)
Clc1cccc(-c2c(Cl)c(Cl)cc(Cl)c2Cl)c1 | 17.4 nM (≈ 5.67 ng/mL)
Clc1cc(-c2cc(Cl)c(Cl)c(Cl)c2)cc(Cl)c1Cl | 1.41 nM (≈ 0.51 ng/mL)
Clc1ccc(-c2c(Cl)cc(Cl)cc2Cl)c(Cl)c1 | 21.9 nM (≈ 7.14 ng/mL)
Clc1cc(Cl)c(-c2ccccc2Cl)c(Cl)c1 | 224 nM (≈ 65.4 ng/mL)
Clc1ccc(-c2ccccc2Cl)c(Cl)c1 | 323 nM (≈ 83.3 ng/mL)
Clc1ccc(-c2ccccc2)cc1Cl | 407 nM (≈ 90.9 ng/mL)
Clc1cc(Cl)c(-c2c(Cl)cc(Cl)c(Cl)c2Cl)c(Cl)c1Cl | 0.794 nM (≈ 0.341 ng/mL)
Clc1ccc(-c2c(Cl)cccc2Cl)c(Cl)c1Cl | 166 nM (≈ 54.2 ng/mL)
Clc1cccc(-c2c(Cl)cccc2Cl)c1Cl | 501 nM (≈ 146 ng/mL)
Clc1cc(Cl)c(-c2c(Cl)c(Cl)c(Cl)c(Cl)c2Cl)cc1Cl | 0.316 nM (≈ 0.136 ng/mL)
Clc1cc(Cl)c(-c2ccc(Cl)c(Cl)c2)c(Cl)c1 | 12.3 nM (≈ 4.02 ng/mL)
Clc1cccc(-c2cc(Cl)c(Cl)cc2Cl)c1 | 74.1 nM (≈ 21.7 ng/mL)
Clc1cc(Cl)cc(-c2ccccc2Cl)c1 | 501 nM (≈ 129 ng/mL)
Clc1cccc(-c2ccc(Cl)c(Cl)c2Cl)c1 | 170 nM (≈ 49.6 ng/mL)
Clc1ccc(-c2ccccc2)c(Cl)c1Cl | 661 nM (≈ 170 ng/mL)
Clc1cc(Cl)c(-c2c(Cl)c(Cl)cc(Cl)c2Cl)c(Cl)c1Cl | 0.631 nM (≈ 0.271 ng/mL)
Clc1ccc(-c2c(Cl)ccc(Cl)c2Cl)c(Cl)c1 | 67.7 nM (≈ 22.1 ng/mL)
Clc1cc(Cl)c(Cl)c(-c2ccccc2)c1Cl | 56.2 nM (≈ 16.4 ng/mL)
Clc1cc(Cl)cc(-c2c(Cl)ccc(Cl)c2Cl)c1 | 11.2 nM (≈ 3.66 ng/mL)
Clc1cc(Cl)c(-c2c(Cl)c(Cl)c(Cl)c(Cl)c2Cl)c(Cl)c1 | 0.331 nM (≈ 0.142 ng/mL)

Other lines, results leading:

solubility | Compound
5.37 nM (≈ 1.94 ng/mL) | Clc1cc(-c2c(Cl)ccc(Cl)c2Cl)cc(Cl)c1Cl
39.8 nM (≈ 13 ng/mL) | Clc1cc(Cl)c(-c2cccc(Cl)c2Cl)c(Cl)c1
5.38 nM (≈ 1.94 ng/mL) | Clc1cc(Cl)cc(-c2c(Cl)c(Cl)cc(Cl)c2Cl)c1
3.8 nM (≈ 1.37 ng/mL) | Clc1cccc(-c2cc(Cl)c(Cl)c(Cl)c2Cl)c1Cl
0.0788 nM (≈ 0.0366 ng/mL) | Clc1cc(Cl)c(-c2c(Cl)c(Cl)c(Cl)c(Cl)c2Cl)c(Cl)c1Cl
7.41 nM (≈ 2.68 ng/mL) | Clc1cc(-c2c(Cl)cccc2Cl)c(Cl)c(Cl)c1Cl
2.09 nM (≈ 0.826 ng/mL) | Clc1cc(Cl)c(-c2cc(Cl)c(Cl)c(Cl)c2Cl)c(Cl)c1
2.09 nM (≈ 0.826 ng/mL) | Clc1cc(Cl)c(Cl)c(-c2c(Cl)cc(Cl)c(Cl)c2Cl)c1
0.794 nM (≈ 0.314 ng/mL) | Clc1cc(-c2c(Cl)cc(Cl)c(Cl)c2Cl)cc(Cl)c1Cl
0.794 nM (≈ 0.314 ng/mL) | Clc1cc(-c2c(Cl)c(Cl)cc(Cl)c2Cl)cc(Cl)c1Cl
11.2 nM (≈ 3.66 ng/mL) | Clc1ccc(-c2c(Cl)cc(Cl)c(Cl)c2Cl)cc1
3.8 nM (≈ 1.5 ng/mL) | Clc1ccc(-c2c(Cl)c(Cl)cc(Cl)c2Cl)c(Cl)c1Cl
33.9 nM (≈ 11.1 ng/mL) | Clc1cc(Cl)c(-c2cc(Cl)ccc2Cl)c(Cl)c1
3.24 nM (≈ 1.28 ng/mL) | Clc1cc(Cl)c(-c2c(Cl)c(Cl)cc(Cl)c2Cl)c(Cl)c1
0.513 nM (≈ 0.22 ng/mL) | Clc1cc(-c2c(Cl)c(Cl)cc(Cl)c2Cl)c(Cl)c(Cl)c1Cl
15.1 nM (≈ 4.94 ng/mL) | Clc1ccc(-c2cc(Cl)cc(Cl)c2Cl)c(Cl)c1
2.63 nM (≈ 0.949 ng/mL) | Clc1cc(Cl)c(Cl)c(-c2cc(Cl)c(Cl)cc2Cl)c1
11.5 nM (≈ 4.54 ng/mL) | Clc1ccc(Cl)c(-c2c(Cl)c(Cl)cc(Cl)c2Cl)c1Cl
9.77 nM (≈ 3.53 ng/mL) | Clc1ccc(Cl)c(-c2c(Cl)cc(Cl)c(Cl)c2Cl)c1
7.08 nM (≈ 2.8 ng/mL) | Clc1cc(Cl)c(-c2c(Cl)ccc(Cl)c2Cl)c(Cl)c1Cl
5.76 nM (≈ 2.08 ng/mL) | Clc1cc(Cl)c(-c2ccc(Cl)c(Cl)c2Cl)c(Cl)c1
0.38 nM (≈ 0.163 ng/mL) | Clc1cc(-c2c(Cl)cc(Cl)c(Cl)c2Cl)c(Cl)c(Cl)c1Cl
2.57 nM (≈ 1.02 ng/mL) | Clc1cc(-c2c(Cl)ccc(Cl)c2Cl)c(Cl)c(Cl)c1Cl
0.794 nM (≈ 0.314 ng/mL) | Clc1cc(Cl)cc(-c2c(Cl)c(Cl)c(Cl)c(Cl)c2Cl)c1
3.31 nM (≈ 1.19 ng/mL) | Clc1cccc(-c2c(Cl)cc(Cl)c(Cl)c2Cl)c1Cl
7.59 nM (≈ 2.74 ng/mL) | Clc1cc(Cl)c(-c2cc(Cl)c(Cl)cc2Cl)c(Cl)c1
